Source: article PMC10765884, “MC180295 is a highly potent and selective CDK9 inhibitor with preclinical in vitro and in vivo efficacy in cancer” (Clinical Epigenetics, 2024)
≈ marks a conversion by molar mass, not a printed value.

What was measured:
HT29 cells = test: HT29 colon cancer xenograft in NSG mice; format: in vivo; details: HT29 s.c. in NSG mice, 20 mg/kg i.p. q.o.d.
Experimental: Fig. 3 Antitumor, survival, and metabolic effects of MC180295 and its enantiomers, MC180379 and MC180380. A Antitumor effects of MC180295, MC180379, and MC180380. NSG mice were inoculated (s.c.) with 2 × 10^6 SW48 cells. Eleven days later, when tumors were palpable, 20 mg/kg MC180295, MC180379, MC180380, or vehicle were administered (i.p.) every other day (q.o.d.). Tumor sizes were measured using a caliper. […] C Antitumor effects of MC180379 and MC180380. NSG mice were inoculated (s.c.) with 1 × 10^6 HT29 cells. Twelve days later, when tumors were palpable, 20 mg/kg MC180379, MC180380, or vehicle were administered (i.p.) q.o.d. Tumor sizes were measured using a caliper. D HT29-xenografted mouse survival following (i.p.) q.o.d. dosing with 20 mg/kg MC180379 or MC180380. E NSG mice were inoculated (i.p.) with 5 × 10^5 MV4-11-luc cells. Four days later, when substantial tumor burden was evident by bioluminescence imaging, MC180379, MC180380, or vehicle were administered (i.p.) q.o.d at 20 mg/kg. Luciferase expression was quantified and calculated. F Mouse survival in days. […] G In vitro liver microsome stability and rat hepatocyte/Sprague–Dawley stability assay comparing MC180379 to MC180380. The dog breed was beagle and the mouse microsome strain was CD-1. […] Significances were calculated using log-rank (Mantel-Cox) or Student’s t tests. […]

Kinetic solubility = format: physicochemical; details: Dulbecco's PBS, aqueous buffer, kinetic from dmso stock; PBS (pH 7.4), Free Base
Experimental: The kinetic solubility of test compounds was determined by adapting Millipore® application note protocol AN1730EN00. Liquid handling was performed using PerkinElmer® Verispan and MDT workstations. In triplicate, 4 µL of 10 mM test compounds in DMSO were added to 196 µL of buffer (Dulbecco’s’ PBS or water). The 200 µM compound solutions, in 2% DMSO, were incubated with gentle shaking for 90 min at RT before vacuum filtration in 96-well polypropylene collection plates, using a Millipore® filtration manifold. 160 µL of filtrate was transferred to a 96-well UV Star analysis plate (Greiner Bio-One® plate # 655,801) containing 40 µL acetonitrile. Standard curves were generated by adding 4 µL of 50 × of five concentrations of test compounds, in DMSO, to 40 µL acetonitrile in UV Star plates, followed by 156 µL buffer. Absorbances at […] were measured using a Molecular Devices® Spectramax Plus microplate reader with Softmax Pro v. 5.4.5 software. Absorbance readings were summed to generate the signal. Test sample concentrations were interpolated from linear standard curves using GraphPad® Prism v 5.04.

CDK9/cyclin T = CDK9/cyclin T (Homo sapiens, UniProt P50750); test: CDK9/cyclin T inhibition, two independent assays; format: biochemical
Experimental: CDK enzymatic assays were performed by Reaction Biology Corp. (Malvern, PA), using 10 µM ATP for determining MC180295 IC50 values for each CDK family member for which assays were available. Kinase enzymatic assays were also performed by Nanosyn (Santa Clara, CA), using microfluidic technology and MC180295 IC50 curves against 10 CDKs. Selectivity against CDK9 was confirmed for the enantiomers at Reaction Biology Corp. (Malvern, PA).

Sequence of CDK9/cyclin T (O60563 whole entry): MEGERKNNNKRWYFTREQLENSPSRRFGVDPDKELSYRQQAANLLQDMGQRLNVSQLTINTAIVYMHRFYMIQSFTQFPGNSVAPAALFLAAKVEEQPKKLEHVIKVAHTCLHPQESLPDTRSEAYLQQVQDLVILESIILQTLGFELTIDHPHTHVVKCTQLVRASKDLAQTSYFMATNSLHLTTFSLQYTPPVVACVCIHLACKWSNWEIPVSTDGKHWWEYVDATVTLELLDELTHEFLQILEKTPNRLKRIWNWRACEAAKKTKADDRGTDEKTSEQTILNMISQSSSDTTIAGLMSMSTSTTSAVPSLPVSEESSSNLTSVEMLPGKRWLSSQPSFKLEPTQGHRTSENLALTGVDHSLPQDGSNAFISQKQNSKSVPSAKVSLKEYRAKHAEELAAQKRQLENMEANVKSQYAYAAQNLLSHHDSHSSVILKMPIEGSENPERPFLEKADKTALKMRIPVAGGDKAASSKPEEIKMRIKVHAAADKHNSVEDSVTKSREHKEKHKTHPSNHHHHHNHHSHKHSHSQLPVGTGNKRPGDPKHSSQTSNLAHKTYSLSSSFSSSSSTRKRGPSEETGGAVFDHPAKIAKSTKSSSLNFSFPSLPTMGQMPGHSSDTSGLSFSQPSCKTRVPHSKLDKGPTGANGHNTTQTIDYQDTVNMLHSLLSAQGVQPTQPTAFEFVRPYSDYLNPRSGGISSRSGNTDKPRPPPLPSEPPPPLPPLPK
Sequence of CDK9/cyclin T (P50750 whole entry): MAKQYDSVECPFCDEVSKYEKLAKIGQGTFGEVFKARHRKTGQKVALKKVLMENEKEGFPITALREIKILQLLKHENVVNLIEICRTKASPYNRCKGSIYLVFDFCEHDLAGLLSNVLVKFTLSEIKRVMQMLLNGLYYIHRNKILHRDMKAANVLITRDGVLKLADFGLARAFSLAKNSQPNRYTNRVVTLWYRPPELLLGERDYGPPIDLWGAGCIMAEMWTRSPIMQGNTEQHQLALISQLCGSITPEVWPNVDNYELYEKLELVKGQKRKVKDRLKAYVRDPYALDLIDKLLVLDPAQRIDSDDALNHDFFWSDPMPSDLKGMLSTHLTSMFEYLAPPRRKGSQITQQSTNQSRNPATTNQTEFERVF

SMILES | survival (HT29 cells) | solubility at 90 min (Kinetic solubility) [µM] | selectivity for CDK9, compared to other CDKs (CDK9/cyclin T) [fold] | IC50 (CDK9/cyclin T; based on two independent assays, read-out: IC50 toward CDK9/cyclin T) [nM]
Nc1nc(N[C@H]2C[C@@H]3CC[C@H]2C3)sc1C(=O)c1ccccc1[N+](=O)[O-] [MC180380] | extending survival longer than MC180379 | 52.6 (≈ 18.9 µg/mL) | – | –
Nc1nc(N[C@@H]2C[C@H]3CC[C@@H]2C3)sc1C(=O)c1ccccc1[N+](=O)[O-] [MC180379] | – | 53.5 (≈ 19.2 µg/mL) | – | –
Nc1nc(N[C@H]2C[C@@H]3CC[C@H]2C3)sc1C(=O)c1ccccc1[N+](=O)[O-] (relative stereo) [MC180295] | – | – | 20 | 3 to 12
